Values quoted from earlier work as cited in patent US20090011014A1, “Tablet Formulation for Sustained Drug-Release” (UNIVERSITE DE MONTREAL, priority 2004, published 2009).
Structures can show the parent of a compound that is named as a salt. Where two headings read alike, the source gives them in different places. Values belong to the compound of their own block, whether it stands above or below them.

Assays:
[1] = 400-mg substituted amylose tablet containing 10% of drug; example 5 and FIG. 16 of U.S. Pat. No. 5,879,707

Influence of pH on solubility (physiological conditions): not influenced by pH
Compound: CC(=O)Nc1ccc(O)cc1 [Acetaminophen]

Solubility, U.S.P. XXIII descriptive term (hydrochloride): freely soluble
Compound: CC(NC(C)(C)C)C(=O)c1cccc(Cl)c1 (stereo not shown) [bupropion hydrochloride]

Compound: O=C([O-])c1ccccc1O.[Na+] [Sodium salicylate]
Time for release of 95% of the drug [1]: 6.5 h
Solubility, U.S.P. XXIII descriptive term: freely soluble
